Laboratory results from US7846697B2, “Method of producing a low molecular weight organic compound in a cell” (BLMaps, priority 2003, dated 2010).

Legend:
[1] = test system: E. coli strain JM109 transformants; assay: Toxicity of vanillin with IPTG-induced expression of UGT85B1 or AS, growth on plates; format: cell-based; also: key: −: No growth; +: weak growth; ++: good growth
Protocol: The E. coli strains TOP10, JM109, and KO1418 were all transformed with the constructed plasmids pJH401, pJH402, pJH411 and pJH412, and pKK223-3 as control, employing standard transformation protocols. Transformants were selected for ampicilin resistance, and two transformants of each E. coli strain with each plasmid were kept for expression experiments. The E. coli transformants were inoculated from plate cultures into 2 ml liquid growth medium (LB medium containing ampicilin at 100 μg/ml), and allowed to grow for 20 hours at 37° C. The precultures were diluted 100 times 10^4 times and 10^6 times in growth medium, and 4 μl droplets of these cell suspensions were applied to the surface of Petri dishes containing solid LB-ampicilin medium containing varying concentrations of vanillin (based on the STV determinations described above), and without or with (to induce gene expression) 1 mM isopropyl thiogalactoside (IPTG). The plates were incubated at 37° C. for 24 hours, after which growth on the various concentrations of vanillin was monitored and recorded.

[2] = test system: E. coli strain JM109 transformants; assay: as above; format: cell-based; conditions: JM109 [pJH410], IPTG induction No
microorganisms = conditions: Pfeifer et al, 1984; cited from earlier work
[3] = test system: E. coli strain KO1418 transformants; assay: Toxicity of vanillin with IPTG-induced expression of UGT85B1 or AS, growth on plates; format: cell-based; design: key: −: No growth; +: weak growth; ++: good growth; conditions: KO1418 [pJH410]
[4] = test system: E. coli strain JM109 transformants; assay: Toxicity of vanillin with constitutive expression of UGT85B1 or AS, growth on plates; format: cell-based
Excerpt: (§1) For experimentation with constitutive expression of UGT85B1 and AS, the E. coli strains JM109, and K01418 were transformed with the constructed plasmids pJH 430, pJH431, pJH432, pJH433, pJH434, pJH435, pJH436, pJH437, pJH438, pJH439, pJH440, and pJH441, and pKOL30 as control, employing standard transformation protocols. Transformants were selected for ampicilin resistance, and two transformants of each E. coli strain with each plasmid were kept for expression experiments. The E. coli transformants were inoculated from plate cultures into 2 ml liquid growth medium (LB medium containing ampicilin at 100 μg/ml), and allowed to grow for 20 hours at 37° C. The precultures were diluted 100 times 10^4 times and 10^6 times in growth medium, and 4 μl droplets of these cell suspensions were applied to the surface of Petri dishes containing solid LB-ampicilin medium containing varying concentrations of vanillin (based on the STV determinations described above). The plates were incubated at 37° C. for 24 hours, after which growth on the various concentrations of vanillin was monitored and recorded.

[5] = test system: E. coli strain KO1418 transformants; assay: as above; format: cell-based
Excerpt: as §1

E. coli strain KO1418 = assay: Vanillin sensitivity (STV) on solid LB growth medium; format: cell-based; conditions: no growth at 1/10000 dilution, growth at 1/100 severely inhibited, 24 hours
Protocol: (§2) The three different E. coli strains TOP10, JM109, and KO1418 were grown for 18 hours in the appropriate media, after which serial dilutions in growth medium (dilution factors 1, 1/100, 1/10000 and 1/1000000) were made. Droplets of these cell suspensions were applied to Petri dishes containing solid LB growth medium with various concentrations of vanillin, and the plates were incubated at the appropriate growth temperature for 24 hours (E. coli), after which they were photographed. […] This number constituted the STV (Sensitivity To Vanillin) level. The STV numbers for the different microorganisms studied can be seen in Table 9.1.

E. coli strain TOP10 = assay: as above; format: cell-based; conditions: no growth at 1/10000 dilution, growth at 1/100 severely inhibited, 24 hours
Protocol: as §2

E. coli strain JM109 = assay: as above; format: cell-based; conditions: no growth at 1/10000 dilution, growth at 1/100 severely inhibited, 24 hours
Protocol: as §2

COc1cc(C=O)ccc1O [Vanillin, vanillin]
growth ([1]; JM109 [pJH401], 0.08% vanillin, IPTG induction No): ++ | growth ([1]; JM109 [pJH401], 0.08% vanillin, IPTG induction Yes): ++ | growth ([1]; JM109 [pJH401], 0.12% vanillin, IPTG induction No): ++ | growth ([1]; JM109 [pJH401], 0.12% vanillin, IPTG induction Yes): ++ | growth ([1]; JM109 [pJH401], 0.16% vanillin, IPTG induction No): − | growth ([1]; JM109 [pJH401], 0.16% vanillin, IPTG induction Yes): − | growth ([1]; JM109 [pJH401], 0.2% vanillin, IPTG induction No): − | growth ([1]; JM109 [pJH401], 0.2% vanillin, IPTG induction Yes): − | growth ([1]; JM109 [pJH402], 0.08% vanillin, IPTG induction No): ++ | growth ([1]; JM109 [pJH402], 0.08% vanillin, IPTG induction Yes): ++ | growth ([1]; JM109 [pJH402], 0.12% vanillin, IPTG induction No): ++ | growth ([1]; JM109 [pJH402], 0.12% vanillin, IPTG induction Yes): ++ | growth ([1]; JM109 [pJH402], 0.16% vanillin, IPTG induction No): + | growth ([1]; JM109 [pJH402], 0.16% vanillin, IPTG induction Yes): ++ | growth ([1]; JM109 [pJH402], 0.2% vanillin, IPTG induction No): − | growth ([1]; JM109 [pJH402], 0.2% vanillin, IPTG induction Yes): − | growth ([1]; JM109 [pJH410], 0.08% vanillin, IPTG induction Yes): ++ | growth ([1]; JM109 [pJH410], 0.12% vanillin, IPTG induction No): ++ | growth ([1]; JM109 [pJH410], 0.12% vanillin, IPTG induction Yes): ++ | growth ([1]; JM109 [pJH410], 0.16% vanillin, IPTG induction No): ++ | growth ([1]; JM109 [pJH410], 0.16% vanillin, IPTG induction Yes): + | growth ([1]; JM109 [pJH410], 0.2% vanillin, IPTG induction Yes): − | growth ([1]; JM109 [pKK223-3], 0.08% vanillin, IPTG induction No): ++ | growth ([1]; JM109 [pKK223-3], 0.08% vanillin, IPTG induction Yes): ++ | growth ([1]; JM109 [pKK223-3], 0.12% vanillin, IPTG induction No): ++ | growth ([1]; JM109 [pKK223-3], 0.12% vanillin, IPTG induction Yes): ++ | growth ([1]; JM109 [pKK223-3], 0.16% vanillin, IPTG induction No): − | growth ([1]; JM109 [pKK223-3], 0.16% vanillin, IPTG induction Yes): − | growth ([1]; JM109 [pKK223-3], 0.2% vanillin, IPTG induction No): − | growth ([1]; JM109 [pKK223-3], 0.2% vanillin, IPTG induction Yes): − | growth ([2]; 0.08% vanillin): ++ | growth ([2]; 0.2% vanillin): − | concentration in the medium at which it acts as a strong growth inhibitor (microorganisms): 5 g/L | growth ([3]; 0.08% vanillin, IPTG induction Yes): ++ | growth ([3]; 0.12% vanillin, IPTG induction No): ++ | growth ([3]; 0.2% vanillin, IPTG induction Yes): ++ | growth ([4]; JM109 [pJH430], 0.08% vanillin): +++ | growth ([4]; JM109 [pJH430], 0.12% vanillin): +++ | growth ([4]; JM109 [pJH430], 0.16% vanillin): ++ | growth ([4]; JM109 [pJH431], 0.08% vanillin): +++ | growth ([4]; JM109 [pJH431], 0.12% vanillin): +++ | growth ([4]; JM109 [pJH431], 0.16% vanillin): ++ | growth ([4]; JM109 [pJH432], 0.08% vanillin): +++ | growth ([4]; JM109 [pJH432], 0.12% vanillin): +++ | growth ([4]; JM109 [pJH432], 0.16% vanillin): + | growth ([4]; JM109 [pJH433], 0.08% vanillin): +++ | growth ([4]; JM109 [pJH433], 0.12% vanillin): +++ | growth ([4]; JM109 [pJH433], 0.16% vanillin): + | growth ([4]; JM109 [pKOL30], 0.08% vanillin): +++ | growth ([4]; JM109 [pKOL30], 0.12% vanillin): ++ | growth ([4]; JM109 [pKOL30], 0.16% vanillin): − | growth ([5]; KO1418 [pJH430], 0.08% vanillin): +++ | growth ([5]; KO1418 [pJH430], 0.12% vanillin): +++ | growth ([5]; KO1418 [pJH430], 0.16% vanillin): +++ | growth ([5]; KO1418 [pJH431], 0.08% vanillin): +++ | growth ([5]; KO1418 [pJH431], 0.12% vanillin): +++ | growth ([5]; KO1418 [pJH431], 0.16% vanillin): +++ | growth ([5]; KO1418 [pJH432], 0.08% vanillin): +++ | growth ([5]; KO1418 [pJH432], 0.12% vanillin): +++ | growth ([5]; KO1418 [pJH432], 0.16% vanillin): + | growth ([5]; KO1418 [pJH433], 0.08% vanillin): +++ | growth ([5]; KO1418 [pJH433], 0.12% vanillin): +++ | growth ([5]; KO1418 [pJH433], 0.16% vanillin): +++ | growth ([5]; KO1418 [pKOL30], 0.08% vanillin): +++ | growth ([5]; KO1418 [pKOL30], 0.12% vanillin): ++ | growth ([5]; KO1418 [pKOL30], 0.16% vanillin): + | STV (Sensitivity To Vanillin) level (E. coli strain KO1418): 0.18 % (w/v) | STV (Sensitivity To Vanillin) level (E. coli strain TOP10): 0.12 % (w/v) | STV (Sensitivity To Vanillin) level (E. coli strain JM109): 0.14 % (w/v)
